ChEMBL document CHEMBL4229524, “Design, synthesis and preclinical evaluation of 5-methyl-N4-aryl-furo[2,3-d]pyrimidines as single agents with combination chemotherapy potential” (Bioorg Med Chem Lett, 2018)

Experiments:
SK-OV-3 = experiment: Antiproliferative activity against human SKOV3 cells after 72 hrs by sulforhodamine B assay; assay type: functional, cell-based; conditions: SK-OV-3, 72 h
[1] = Antiproliferative activity against human wild-type Hela-beta3 cells after 72 hrs by sulforhodamine B assay; assay type: functional
A10 = experiment: Induction of microtubule depolymerization in rat A10 cells after 18 hrs by indirect immunofluorescence method; assay type: functional, cell-based; conditions: A10, 18 h
[2] = biological target: Vascular endothelial growth factor receptor 2 (Homo sapiens, UniProt P35968); assay type: cell-based
Chain of Vascular endothelial growth factor receptor 2 (P35968 whole entry): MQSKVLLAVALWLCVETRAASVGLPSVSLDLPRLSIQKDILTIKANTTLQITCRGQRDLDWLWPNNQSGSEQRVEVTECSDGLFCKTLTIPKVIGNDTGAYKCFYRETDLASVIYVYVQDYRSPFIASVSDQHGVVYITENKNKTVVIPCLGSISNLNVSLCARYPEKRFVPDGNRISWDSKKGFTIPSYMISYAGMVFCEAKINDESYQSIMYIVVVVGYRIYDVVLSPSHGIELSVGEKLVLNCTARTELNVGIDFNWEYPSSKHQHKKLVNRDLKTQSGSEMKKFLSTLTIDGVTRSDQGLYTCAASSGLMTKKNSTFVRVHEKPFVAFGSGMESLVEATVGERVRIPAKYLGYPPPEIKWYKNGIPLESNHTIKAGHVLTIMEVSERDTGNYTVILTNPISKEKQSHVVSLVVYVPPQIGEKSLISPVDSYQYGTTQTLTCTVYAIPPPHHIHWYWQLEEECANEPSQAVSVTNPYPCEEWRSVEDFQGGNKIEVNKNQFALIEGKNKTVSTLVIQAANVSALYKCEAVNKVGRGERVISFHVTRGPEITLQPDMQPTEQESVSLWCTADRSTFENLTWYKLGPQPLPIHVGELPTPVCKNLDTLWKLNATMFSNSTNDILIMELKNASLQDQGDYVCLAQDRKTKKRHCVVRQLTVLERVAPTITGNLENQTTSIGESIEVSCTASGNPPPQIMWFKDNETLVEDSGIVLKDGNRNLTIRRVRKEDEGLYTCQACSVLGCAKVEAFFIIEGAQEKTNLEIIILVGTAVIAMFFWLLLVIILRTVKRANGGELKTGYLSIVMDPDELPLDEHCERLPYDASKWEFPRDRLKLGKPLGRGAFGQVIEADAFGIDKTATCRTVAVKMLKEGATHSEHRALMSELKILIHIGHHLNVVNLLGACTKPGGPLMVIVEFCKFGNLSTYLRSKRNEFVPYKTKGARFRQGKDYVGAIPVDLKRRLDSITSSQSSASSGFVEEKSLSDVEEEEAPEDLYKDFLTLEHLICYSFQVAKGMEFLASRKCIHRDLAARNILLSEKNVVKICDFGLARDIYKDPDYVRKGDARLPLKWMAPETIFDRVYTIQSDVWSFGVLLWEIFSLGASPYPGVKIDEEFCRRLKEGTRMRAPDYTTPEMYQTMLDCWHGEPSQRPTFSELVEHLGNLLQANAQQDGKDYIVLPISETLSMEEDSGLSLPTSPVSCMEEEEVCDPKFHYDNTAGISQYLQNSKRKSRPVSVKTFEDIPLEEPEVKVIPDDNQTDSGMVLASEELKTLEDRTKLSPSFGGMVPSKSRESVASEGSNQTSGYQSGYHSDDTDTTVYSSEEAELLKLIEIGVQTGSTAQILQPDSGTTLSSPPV

Chorioallantoic membrane [3] = experiment: Antiangiogenic activity in Leghorn chicken embryo chorioallantoic membrane after 40 hrs by microscopic analysis; assay type: functional, tissue-based; conditions: Gallus gallus
Chorioallantoic membrane [4] = experiment: Potency index, ratio of sunitinib IC50 to test compound IC50 for antiangiogenic activity in Leghorn chicken embryo chorioallantoic membrane; assay type: functional, tissue-based; conditions: Gallus gallus
A-431 = experiment: Cytotoxicity against human A431 cells over-expressing EGFR; assay type: functional, cell-based
[5] = biological target: Epidermal growth factor receptor (Homo sapiens, UniProt P00533); assay type: cell-based
Chain of Epidermal growth factor receptor (P00533 whole entry): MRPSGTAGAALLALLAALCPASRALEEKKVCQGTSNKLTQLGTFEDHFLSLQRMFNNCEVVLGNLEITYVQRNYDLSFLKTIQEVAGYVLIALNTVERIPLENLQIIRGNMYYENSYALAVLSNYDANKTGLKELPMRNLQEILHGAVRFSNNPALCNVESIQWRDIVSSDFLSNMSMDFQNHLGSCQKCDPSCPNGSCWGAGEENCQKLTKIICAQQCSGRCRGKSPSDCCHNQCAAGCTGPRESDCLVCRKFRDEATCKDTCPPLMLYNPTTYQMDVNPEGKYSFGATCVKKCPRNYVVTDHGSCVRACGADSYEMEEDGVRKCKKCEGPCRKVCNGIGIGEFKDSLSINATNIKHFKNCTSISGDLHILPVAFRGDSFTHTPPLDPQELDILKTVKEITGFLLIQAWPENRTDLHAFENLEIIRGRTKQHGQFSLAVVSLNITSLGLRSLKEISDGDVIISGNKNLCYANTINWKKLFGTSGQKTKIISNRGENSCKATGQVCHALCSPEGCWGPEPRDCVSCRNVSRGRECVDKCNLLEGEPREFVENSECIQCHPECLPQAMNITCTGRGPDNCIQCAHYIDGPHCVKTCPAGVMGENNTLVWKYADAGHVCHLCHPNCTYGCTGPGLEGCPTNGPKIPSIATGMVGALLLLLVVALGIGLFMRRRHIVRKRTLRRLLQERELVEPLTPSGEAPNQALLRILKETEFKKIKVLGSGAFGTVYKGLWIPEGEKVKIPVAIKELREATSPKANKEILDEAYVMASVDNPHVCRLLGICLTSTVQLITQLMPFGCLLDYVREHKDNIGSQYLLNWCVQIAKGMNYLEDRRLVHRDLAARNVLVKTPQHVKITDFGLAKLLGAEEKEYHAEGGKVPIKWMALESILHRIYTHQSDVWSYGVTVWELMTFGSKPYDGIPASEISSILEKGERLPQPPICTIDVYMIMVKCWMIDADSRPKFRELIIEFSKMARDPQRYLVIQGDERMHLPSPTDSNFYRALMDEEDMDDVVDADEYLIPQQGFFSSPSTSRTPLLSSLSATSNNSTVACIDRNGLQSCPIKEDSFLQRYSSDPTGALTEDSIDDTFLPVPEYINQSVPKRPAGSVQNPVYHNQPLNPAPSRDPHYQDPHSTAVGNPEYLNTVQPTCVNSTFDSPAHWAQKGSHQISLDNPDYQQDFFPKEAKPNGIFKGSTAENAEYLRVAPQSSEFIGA

[6] = biological target: Platelet-derived growth factor receptor beta (Homo sapiens, UniProt P09619); experiment: Inhibition of PDGF-BB-induced PDGFRbeta activation in human SH-SY5Y cells pretreated for 60 mins followed by PDGF-BB addition and measured after 10 mins by ELISA; assay type: cell-based
Chain of Platelet-derived growth factor receptor beta (P09619 whole entry): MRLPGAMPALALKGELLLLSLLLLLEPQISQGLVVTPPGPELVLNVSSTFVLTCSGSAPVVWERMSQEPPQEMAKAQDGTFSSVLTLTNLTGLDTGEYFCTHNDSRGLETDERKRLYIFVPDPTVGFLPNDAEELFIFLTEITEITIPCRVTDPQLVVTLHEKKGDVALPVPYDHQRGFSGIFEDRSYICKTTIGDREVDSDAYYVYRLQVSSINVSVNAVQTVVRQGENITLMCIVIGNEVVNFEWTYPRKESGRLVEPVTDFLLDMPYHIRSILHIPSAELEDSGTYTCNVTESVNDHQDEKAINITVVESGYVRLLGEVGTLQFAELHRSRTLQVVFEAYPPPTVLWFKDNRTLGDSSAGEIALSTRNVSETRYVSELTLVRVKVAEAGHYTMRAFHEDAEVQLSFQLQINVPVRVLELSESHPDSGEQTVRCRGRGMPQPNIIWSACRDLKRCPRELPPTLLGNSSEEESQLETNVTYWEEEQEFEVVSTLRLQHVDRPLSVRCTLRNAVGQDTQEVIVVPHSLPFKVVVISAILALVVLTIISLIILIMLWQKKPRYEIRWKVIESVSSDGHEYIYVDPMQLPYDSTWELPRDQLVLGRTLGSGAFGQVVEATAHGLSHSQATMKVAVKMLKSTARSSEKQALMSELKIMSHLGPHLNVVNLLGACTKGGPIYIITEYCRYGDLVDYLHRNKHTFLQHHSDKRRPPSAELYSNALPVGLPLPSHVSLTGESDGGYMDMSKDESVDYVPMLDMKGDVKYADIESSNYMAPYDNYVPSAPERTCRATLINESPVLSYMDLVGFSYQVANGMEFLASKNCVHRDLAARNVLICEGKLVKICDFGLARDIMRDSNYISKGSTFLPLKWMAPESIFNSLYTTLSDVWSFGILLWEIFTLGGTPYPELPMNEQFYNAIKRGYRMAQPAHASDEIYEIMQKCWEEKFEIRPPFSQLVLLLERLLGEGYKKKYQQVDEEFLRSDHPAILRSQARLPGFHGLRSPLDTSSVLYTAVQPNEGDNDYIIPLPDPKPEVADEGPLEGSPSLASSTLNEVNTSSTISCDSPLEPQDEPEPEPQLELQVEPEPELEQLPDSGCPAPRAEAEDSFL

SMILES	IC50 (SK-OV-3) [nM]	IC50 [2] [nM]	IC50 [5] [nM]	IC50 [6] [nM]	IC50 [1] [nM]	EC50 (A10) [nM]	IC50 (Chorioallantoic membrane [3]) [nM]	Ratio IC50 (Chorioallantoic membrane [4])	IC50 (A-431) [nM]
CC(=O)O[C@H]1C(=O)[C@@]2(C)[C@H]([C@H](OC(=O)c3ccccc3)[C@]3(O)C[C@H](OC(=O)[C@H](O)[C@@H](NC(=O)c4ccccc4)c4ccccc4)C(C)=C1C3(C)C)[C@]1(OC(C)=O)CO[C@@H]1C[C@@H]2O [PACLITAXEL]	5	–	–	–	24	–	–	–	–
COc1ccc(/C=C\c2cc(OC)c(OC)c(OC)c2)cc1O [COMBRETASTATIN A4]	–	–	–	–	–	9.8	–	–	–
Cc1coc2ncnc(Nc3ccc([N+](=O)[O-])cc3)c12	–	> 200	> 200	> 200	–	> 10000	–	–	–

More lines, main results first:

IC50 (SK-OV-3) [nM]	IC50 [2] [nM]	IC50 [5] [nM]	IC50 [6] [nM]	SMILES	IC50 [1] [nM]	EC50 (A10) [nM]	IC50 (Chorioallantoic membrane [3]) [nM]	Ratio IC50 (Chorioallantoic membrane [4])	IC50 (A-431) [nM]
–	12	7.1	38.9	CCCN(c1ccc(OC)cc1)c1ncnc2occ(C)c12	–	–	301	4	2.3
–	23.4	10.1	42.6	COc1ccc(N(c2ncnc3occ(C)c23)C(C)C)cc1	–	–	480	–	4.8
–	7.8	4	28.9	CCc1ccc(N(C)c2ncnc3occ(C)c23)cc1	–	–	287	4	1.4
–	67.3	92.5	51.4	CCN(c1ccc(OC)cc1)c1ncnc2occ(C)c12	–	–	812	–	3.4
